Assay results: BindingDB's records for doi:10.1016/j.bmcl.2012.06.068 (Chulalongkorn University, 2012)

Key:
[1] = Non-competitive inhibition of rat intestinal maltase using maltose as substrate assessed as dissociation of enzyme-substrate-inhibitor complex at 0.1 to 1 mg/ml by secondary plot analysis
[2] = Competitive inhibition of rat intestinal maltase using maltose as substrate assessed as dissociation of enzyme-inhibitor complex at 0.1 to 1 mg/ml by Dixon plot analysis

Structure (SMILES): COc1cc([C@@H]2OC[C@@H]3[C@H]2CO[C@H]3c2ccc(O)c(OC)c2)ccc1O [4-[(1S,3aR,4S,6aR)-4-(4-hydroxy-3-methoxyphenyl)tetrahydro-1H,3H-furo[3,4-c]furan-1-yl]-2-methoxyphenol]
- Ki [1]: 1340 µM
- Ki [2]: 288 µM
